Article PMC7044277 (Nature Communications, 2020)
Values joined by “and” are separate entries in the source; they are usually repeats but may differ in a detail not shown here. Equal entries are not always repeated.

Tests used:
Type in all cases: cell-based
320 non-olfactory GPCRs [1] = molecular target: 320 non-olfactory GPCRs (Homo sapiens, UniProt P35414)
320 non-olfactory GPCRs [2] = molecular target: T1, 320 non-olfactory GPCRs (Homo sapiens, UniProt P37288)
T1 construct: expressed in transfected cells; host or cells: HTLA cells
T1 sequence (P37288 whole entry): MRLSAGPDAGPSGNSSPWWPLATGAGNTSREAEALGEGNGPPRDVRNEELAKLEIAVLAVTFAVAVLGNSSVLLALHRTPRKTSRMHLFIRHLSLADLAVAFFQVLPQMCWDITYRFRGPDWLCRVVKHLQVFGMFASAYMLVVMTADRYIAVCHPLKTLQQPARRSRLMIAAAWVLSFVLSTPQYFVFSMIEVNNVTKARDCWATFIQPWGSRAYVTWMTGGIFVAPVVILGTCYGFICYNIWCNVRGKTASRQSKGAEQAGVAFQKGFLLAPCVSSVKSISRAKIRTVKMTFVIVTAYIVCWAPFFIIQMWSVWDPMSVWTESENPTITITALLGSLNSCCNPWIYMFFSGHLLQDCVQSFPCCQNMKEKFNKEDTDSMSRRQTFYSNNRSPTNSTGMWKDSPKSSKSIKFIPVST

320 non-olfactory GPCRs [3] = molecular target: 320 non-olfactory GPCRs (Homo sapiens, UniProt P43220)
320 non-olfactory GPCRs (Homo sapiens, UniProt P43220), sequence (P43220 24-463): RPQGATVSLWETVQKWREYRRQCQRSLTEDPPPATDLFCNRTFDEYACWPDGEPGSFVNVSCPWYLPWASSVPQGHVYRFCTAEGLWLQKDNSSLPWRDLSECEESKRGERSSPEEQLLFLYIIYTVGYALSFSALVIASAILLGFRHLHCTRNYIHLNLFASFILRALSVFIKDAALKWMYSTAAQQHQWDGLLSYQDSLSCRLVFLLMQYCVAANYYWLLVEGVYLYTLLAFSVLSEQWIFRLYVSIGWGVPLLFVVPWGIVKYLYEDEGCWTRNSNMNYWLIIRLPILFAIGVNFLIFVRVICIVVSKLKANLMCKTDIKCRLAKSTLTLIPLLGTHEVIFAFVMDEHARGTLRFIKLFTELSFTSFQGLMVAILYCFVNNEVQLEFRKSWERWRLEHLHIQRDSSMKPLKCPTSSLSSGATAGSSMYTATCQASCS

320 non-olfactory GPCRs [4] = molecular target: T2, 320 non-olfactory GPCRs (Homo sapiens, UniProt Q6U736); conditions: receptor OPN5; replicate values, Fig_4g
T2 construct: expressed in transfected cells; host or cells: HTLA cells
T2 sequence (Q6U736 whole entry): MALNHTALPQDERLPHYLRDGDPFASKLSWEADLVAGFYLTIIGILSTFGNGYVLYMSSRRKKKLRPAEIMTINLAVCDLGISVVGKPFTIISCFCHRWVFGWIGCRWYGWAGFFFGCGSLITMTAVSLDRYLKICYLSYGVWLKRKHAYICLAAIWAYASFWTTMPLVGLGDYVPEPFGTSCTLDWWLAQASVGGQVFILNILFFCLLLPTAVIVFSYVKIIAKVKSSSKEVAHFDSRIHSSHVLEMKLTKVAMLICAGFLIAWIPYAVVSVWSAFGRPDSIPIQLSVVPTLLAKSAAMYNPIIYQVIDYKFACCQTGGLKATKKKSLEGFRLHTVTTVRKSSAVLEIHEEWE
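Wherever Fold of Basal is given: compound tested at 1 µM final concentration.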
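Wherever GPCRome agonism screen response is given: fold over basal response of each receptor without drug.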

320 non-olfactory GPCRs (Homo sapiens, UniProt P35414), sequence (P35414 whole entry): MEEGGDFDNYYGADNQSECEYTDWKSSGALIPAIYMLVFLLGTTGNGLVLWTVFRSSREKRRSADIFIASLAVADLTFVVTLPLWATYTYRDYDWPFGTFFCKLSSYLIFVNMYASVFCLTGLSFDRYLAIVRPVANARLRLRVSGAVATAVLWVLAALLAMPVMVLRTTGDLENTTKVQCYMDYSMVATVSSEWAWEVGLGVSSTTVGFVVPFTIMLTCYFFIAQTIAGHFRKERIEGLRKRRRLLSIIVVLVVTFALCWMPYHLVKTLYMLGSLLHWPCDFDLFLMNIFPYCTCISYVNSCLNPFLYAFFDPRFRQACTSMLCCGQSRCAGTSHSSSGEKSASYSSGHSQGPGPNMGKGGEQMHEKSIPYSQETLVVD

Q: `CCOc1cccc2cc(C(C)NCC3(O)CCCCC3)oc12` (stereo not shown) [O4LE6] was tested. Which “Fold of Basal” value (320 non-olfactory GPCRs [1]) did it give?
A: The value was 1.057 and 1.1216 and 0.9447 and 1.032.

Q: And the “Fold of Basal” value (320 non-olfactory GPCRs [2])?
A: Its value is 0.5721 and 0.4612 and 0.3897 and 0.4481.

Q: And the “Fold of Basal” value (320 non-olfactory GPCRs [3])?
A: The value was 0.6919 and 1.003 and 1.157 and 1.2674.

Q: What about the “GPCRome agonism screen response” value (320 non-olfactory GPCRs [4]) of the same compound?
A: The value was 0.05197 and 0.3541 and 1.246 and 1.464.
